Earlier results, collected in US5346693A, “Depigmenting cosmetic or dermatological composition containing arbutoside derivatives” (L'Oreal, priority 1991, dated 1994).

System: melanocyte

Oc1ccc(O)cc1 [hydroquinone]
cytotoxicity to the melanocyte: cytotoxic to the melanocyte
